Assays:
Assay type in all cases: in vivo
[1] = tested on: Avena fatua; assay: Herbicidal activity, preemergence test (Example 66); set-up: key: A rating of 0 indicates growth as untreated control; a rating of 9 indicates death; settings: pre; 1000 g/ha; assessed visually twenty days after spraying
Description: (§1) To evaluate their herbicidal activity, compounds according to the invention are tested using a representative range of plants: ZEAMX Zea mays ORYSA Oryza sativa GLXMA Glycine max BEAVA Beta vulgaris LIUUT Linum usitatissimum AVEFA Avena fatua ECHCG Echinochloa crus-galli SINAL Sinapsis alba
(§2) The tests fall into two categories, preemergence and postemergence. The preemergence tests involve spraying a liquid formulation of the compound onto the soil in which the seeds of the plant species mentioned above have recently been sown. The postemergence tests involve spraying a liquid formulation of the compound onto seedling plants of the above species.
(§3) The soil used in the tests is a prepared horticultural loam.
(§4) The formulations used in the tests are prepared from solutions of the test compounds in acetone containing 0.4% by weight of an alkylphenol/ethylene oxide condensate available under the trademark TRITON X-155. These acetone solutions are diluted with water and the resulting formulations applied at dosage levels corresponding to 1000 g of active material per hectare in a volume equivalent to 900 litres per hectare.
(§5) In the preemergence tests, untreated sown soil, and in the postemergence tests, untreated soil bearing seedling plants, are used as controls.
(§6) The herbicidal effects of the test compounds are assessed visually twenty days after spraying the foliage and the soil and are recorded on a 0-9 scale. A rating of 0 indicates growth as untreated control, a rating of 9 indicates death. An increase of 1 unit on the linear scale approximates to an 11% increase in the level of effect.

[2] = tested on: Beta vulgaris; assay: as above; set-up: key: A rating of 0 indicates growth as untreated control; a rating of 9 indicates death; settings: pre; 1000 g/ha; assessed visually twenty days after spraying
Description: as §1, §2, §3, §4, §5, §6

[3] = tested on: Echinochloa crus-galli; assay: as above; set-up: key: A rating of 0 indicates growth as untreated control; a rating of 9 indicates death; settings: pre; 1000 g/ha; assessed visually twenty days after spraying
Description: as §1, §2, §3, §4, §5, §6

[4] = tested on: Glycine max; assay: as above; set-up: key: A rating of 0 indicates growth as untreated control; a rating of 9 indicates death; settings: pre; 1000 g/ha; assessed visually twenty days after spraying
Description: as §1, §2, §3, §4, §5, §6

[5] = tested on: Linum usitatissimum; assay: as above; set-up: key: A rating of 0 indicates growth as untreated control; a rating of 9 indicates death; settings: pre; 1000 g/ha; assessed visually twenty days after spraying
Description: as §1, §2, §3, §4, §5, §6

[6] = tested on: Oryza sativa; assay: as above; set-up: key: A rating of 0 indicates growth as untreated control; a rating of 9 indicates death; settings: pre; 1000 g/ha; assessed visually twenty days after spraying
Description: as §1, §2, §3, §4, §5, §6

[7] = tested on: Sinapsis alba; assay: as above; set-up: key: A rating of 0 indicates growth as untreated control; a rating of 9 indicates death; settings: pre; 1000 g/ha; assessed visually twenty days after spraying
Description: as §1, §2, §3, §4, §5, §6

[8] = tested on: Zea mays; assay: as above; set-up: key: A rating of 0 indicates growth as untreated control; a rating of 9 indicates death; settings: pre; 1000 g/ha; assessed visually twenty days after spraying
Description: as §1, §2, §3, §4, §5, §6

[9] = tested on: Glycine max; assay: Herbicidal activity, postemergence test (Example 66); settings: post; 1000 g/ha; assessed visually twenty days after spraying
Description: as §1, §2, §3, §4, §5, §6

[10] = tested on: Avena fatua; assay: as above; set-up: key: A rating of 0 indicates growth as untreated control; a rating of 9 indicates death; settings: post; 1000 g/ha; assessed visually twenty days after spraying
Description: as §1, §2, §3, §4, §5, §6

[11] = tested on: Beta vulgaris; assay: as above; set-up: key: A rating of 0 indicates growth as untreated control; a rating of 9 indicates death; settings: post; 1000 g/ha; assessed visually twenty days after spraying
Description: as §1, §2, §3, §4, §5, §6

[12] = tested on: Echinochloa crus-galli; assay: as above; set-up: key: A rating of 0 indicates growth as untreated control; a rating of 9 indicates death; settings: post; 1000 g/ha; assessed visually twenty days after spraying
Description: as §1, §2, §3, §4, §5, §6

[13] = tested on: Linum usitatissimum; assay: as above; set-up: key: A rating of 0 indicates growth as untreated control; a rating of 9 indicates death; settings: post; 1000 g/ha; assessed visually twenty days after spraying
Description: as §1, §2, §3, §4, §5, §6

[14] = tested on: Oryza sativa; assay: as above; set-up: key: A rating of 0 indicates growth as untreated control; a rating of 9 indicates death; settings: post; 1000 g/ha; assessed visually twenty days after spraying
Description: as §1, §2, §3, §4, §5, §6

[15] = tested on: Sinapsis alba; assay: as above; set-up: key: A rating of 0 indicates growth as untreated control; a rating of 9 indicates death; settings: post; 1000 g/ha; assessed visually twenty days after spraying
Description: as §1, §2, §3, §4, §5, §6

[16] = tested on: Zea mays; assay: as above; set-up: key: A rating of 0 indicates growth as untreated control; a rating of 9 indicates death; settings: post; 1000 g/ha; assessed visually twenty days after spraying
Description: as §1, §2, §3, §4, §5, §6

[17] = tested on: Triticum aestivum; assay: Preemergence herbicidal activity (Example 67); settings: pre, 800 g/ha
Method in brief: (§7)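 Test compound was dissolved in acetone containing 0.5% alkylphenol/ethylene oxide condensate, diluted with water and sprayed onto the soil surface of cups at 800g/ha in 400 L/ha (3 bar nozzle). Cups were kept under standard greenhouse conditions and rated about 1-3 weeks after treatment.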

[18] = tested on: Hordeum vulgare; assay: Preemergence herbicidal activity (Example 67); settings: pre, 800 g/ha
Method in brief: as §7

[19] = tested on: Alopecurus myosuroides; assay: Preemergence herbicidal activity (Example 67); settings: pre, 800 g/ha
Method in brief: as §7

[20] = tested on: Setaria viridis; assay: Preemergence herbicidal activity (Example 67); settings: pre, 800 g/ha
Method in brief: as §7

[21] = tested on: Abutilon theophrasti; assay: Preemergence herbicidal activity (Example 67); settings: pre, 800 g/ha
Method in brief: as §7

[22] = tested on: Amaranthus retroflexus; assay: Preemergence herbicidal activity (Example 67); settings: pre, 800 g/ha
Method in brief: as §7

[23] = tested on: Chenopodium album; assay: Preemergence herbicidal activity (Example 67); settings: pre, 800 g/ha
Method in brief: as §7

[24] = tested on: Galium aparine; assay: Preemergence herbicidal activity (Example 67); settings: pre, 800 g/ha
Method in brief: as §7

[25] = tested on: Helianthus annuus; assay: Preemergence herbicidal activity (Example 67); settings: pre, 800 g/ha
Method in brief: as §7

[26] = tested on: Ipomoea hederacea; assay: Preemergence herbicidal activity (Example 67); settings: pre, 800 g/ha
Method in brief: as §7

[27] = tested on: Veronica persica; assay: Preemergence herbicidal activity (Example 67); settings: pre, 800 g/ha
Method in brief: as §7

[28] = tested on: Zea mays; assay: Preemergence herbicidal activity (Example 67); settings: pre, 800 g/ha
Method in brief: as §7

[29] = tested on: Abutilon theophrasti; assay: Postemergence herbicidal activity (Example 67); settings: pos, 800 g/ha
Method in brief: (§8)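 Seedlings 3-6 weeks old, grown in peat/volcanic clay/bark/polyamide substrate mixed 1:3 with loamy sand, were sprayed postemergence at 800g/ha in 400 L/ha. Compound dissolved in acetone with 0.5% TRITON X-155, diluted in water. Plants kept in greenhouse and rated visually after 10-21 days.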

[30] = tested on: Alopecurus myosuroides; assay: Postemergence herbicidal activity (Example 67); settings: pos, 800 g/ha
Method in brief: as §8

[31] = tested on: Amaranthus retroflexus; assay: Postemergence herbicidal activity (Example 67); settings: pos, 800 g/ha
Method in brief: as §8

[32] = tested on: Chenopodium album; assay: Postemergence herbicidal activity (Example 67); settings: pos, 800 g/ha
Method in brief: as §8

[33] = tested on: Galium aparine; assay: Postemergence herbicidal activity (Example 67); settings: pos, 800 g/ha
Method in brief: as §8

[34] = tested on: Helianthus annuus; assay: Postemergence herbicidal activity (Example 67); settings: pos, 800 g/ha
Method in brief: as §8

[35] = tested on: Hordeum vulgare; assay: Postemergence herbicidal activity (Example 67); settings: pos, 800 g/ha
Method in brief: as §8

[36] = tested on: Ipomoea hederacea; assay: Postemergence herbicidal activity (Example 67); settings: pos, 800 g/ha
Method in brief: as §8

[37] = tested on: Setaria viridis; assay: Postemergence herbicidal activity (Example 67); settings: pos, 800 g/ha
Method in brief: as §8

[38] = tested on: Triticum aestivum; assay: Postemergence herbicidal activity (Example 67); settings: pos, 800 g/ha
Method in brief: as §8

[39] = tested on: Veronica persica; assay: Postemergence herbicidal activity (Example 67); settings: pos, 800 g/ha
Method in brief: as §8

[40] = tested on: Zea mays; assay: Postemergence herbicidal activity (Example 67); settings: pos, 800 g/ha
Method in brief: as §8

Row | Compound | TRZ AW rating [17] | HOR VW rating [18] | ALO MY rating [19] | SET VI rating [20] | ABU TH rating [21] | AMA RE rating [22] | CHE AL rating [23] | GAL AP rating [24] | HEL AN rating [25] | IPO HE rating [26] | VER PE rating [27] | ZEA MX rating [28] | ABU TH rating [29] | ALO MY rating [30] | AMA RE rating [31] | CHE AL rating [32] | GAL AP rating [33] | HEL AN rating [34] | HOR VW rating [35] | IPO HE rating [36] | further results
1 | CC(C)Cc1nsc(C(=O)NC(C)c2cccs2)n1 (racemic) [Example 12, (R/S)-3-Isobutyl-[1,2,4]thiadiazole-5-carboxylic acid, [1-(2-thienyl)ethyl]amide] |  |  |  |  |  |  |  |  |  |  |  |  |  |  |  |  |  |  |  |  | herbicidal effects on a 0-9 scale, AVEFA [1]: 0; herbicidal effects on a 0-9 scale, BEAVA [2]: 5; herbicidal effects on a 0-9 scale, ECHCG [3]: 5; herbicidal effects on a 0-9 scale, GLXMA [4]: 0; herbicidal effects on a 0-9 scale, LIUUT [5]: 2; herbicidal effects on a 0-9 scale, ORYSA [6]: 0; herbicidal effects on a 0-9 scale, SINAL [7]: 5; herbicidal effects on a 0-9 scale, ZEAMX [8]: 0; herbicidal effects on a 0-9 scale, GLXMA [9]: 5; herbicidal effects on a 0-9 scale, AVEFA [10]: 2; herbicidal effects on a 0-9 scale, BEAVA [11]: 8; herbicidal effects on a 0-9 scale, ECHCG [12]: 9; herbicidal effects on a 0-9 scale, LIUUT [13]: 8; herbicidal effects on a 0-9 scale, ORYSA [14]: 0; herbicidal effects on a 0-9 scale, SINAL [15]: 9; herbicidal effects on a 0-9 scale, ZEAMX [16]: 0
2 | O=C(Nc1ccccc1)c1nsc(-c2cccc(C(F)(F)F)c2)n1 [Example 64] | 2 (6-15%) | 0 | 0 | 2 (6-15%) | 0 | 0 | 0 | 0 | 0 | 3 (16-29%) | 0 | 0 | 1 (1-5%) | 2 (6-15%) | 0 | 0 | 0 | 0 | 1 (1-5%) | 0 | SET VI rating [37]: 4 (30-44%); TRZ AW rating [38]: 2 (6-15%); VER PE rating [39]: 0; ZEA MX rating [40]: 1 (1-5%)
3 | O=C(Nc1cccc(F)c1)c1nsc(-c2cccc(C(F)(F)F)c2)n1 [Example 65] | 2 (6-15%) | 0 | 4 (30-44%) | 0 | 3 (16-29%) | 0 | 1 (1-5%) | 0 | 0 | 3 (16-29%) | 0 | 0 | 0 | 1 (1-5%) | 0 | 0 | 0 | 0 | 1 (1-5%) | 1 (1-5%) | SET VI rating [37]: 0; TRZ AW rating [38]: 3 (16-29%); VER PE rating [39]: 0; ZEA MX rating [40]: 0
